We go through 28 molecules from patent US20230382925A1, “MODULATORS OF CYSTIC FIBROSIS TRANSMEMBRANE CONDUCTANCE REGULATOR” (VERTEX PHARMACEUTICALS INCORPORATED, priority 2020, published 2023).

A word on the EC50: it is the midpoint of the concentration-response curve.

The target in the experiment is CFTR (Homo sapiens, UniProt P13569). The experiment can be described thus: Membrane Potential Dye, Enteroid Assay B. Type of experiment: cell-based. In short, it runs like this: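 Human intestinal enteroid cells exposed to compound 18-24 h at 37 °C, then loaded with methyl oxonol membrane-potential dye plus CaCC blockers. Chloride transport triggered in chloride-free buffer with 10 μM forskolin, 100 μM IBMX, 300 nM Compound III; fluorescence read 15 min, expressed as % of triple-corrector/potentiator combination control.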
CFTR, sequence (P13569 with tags, fused parts or gaps DEL508-508): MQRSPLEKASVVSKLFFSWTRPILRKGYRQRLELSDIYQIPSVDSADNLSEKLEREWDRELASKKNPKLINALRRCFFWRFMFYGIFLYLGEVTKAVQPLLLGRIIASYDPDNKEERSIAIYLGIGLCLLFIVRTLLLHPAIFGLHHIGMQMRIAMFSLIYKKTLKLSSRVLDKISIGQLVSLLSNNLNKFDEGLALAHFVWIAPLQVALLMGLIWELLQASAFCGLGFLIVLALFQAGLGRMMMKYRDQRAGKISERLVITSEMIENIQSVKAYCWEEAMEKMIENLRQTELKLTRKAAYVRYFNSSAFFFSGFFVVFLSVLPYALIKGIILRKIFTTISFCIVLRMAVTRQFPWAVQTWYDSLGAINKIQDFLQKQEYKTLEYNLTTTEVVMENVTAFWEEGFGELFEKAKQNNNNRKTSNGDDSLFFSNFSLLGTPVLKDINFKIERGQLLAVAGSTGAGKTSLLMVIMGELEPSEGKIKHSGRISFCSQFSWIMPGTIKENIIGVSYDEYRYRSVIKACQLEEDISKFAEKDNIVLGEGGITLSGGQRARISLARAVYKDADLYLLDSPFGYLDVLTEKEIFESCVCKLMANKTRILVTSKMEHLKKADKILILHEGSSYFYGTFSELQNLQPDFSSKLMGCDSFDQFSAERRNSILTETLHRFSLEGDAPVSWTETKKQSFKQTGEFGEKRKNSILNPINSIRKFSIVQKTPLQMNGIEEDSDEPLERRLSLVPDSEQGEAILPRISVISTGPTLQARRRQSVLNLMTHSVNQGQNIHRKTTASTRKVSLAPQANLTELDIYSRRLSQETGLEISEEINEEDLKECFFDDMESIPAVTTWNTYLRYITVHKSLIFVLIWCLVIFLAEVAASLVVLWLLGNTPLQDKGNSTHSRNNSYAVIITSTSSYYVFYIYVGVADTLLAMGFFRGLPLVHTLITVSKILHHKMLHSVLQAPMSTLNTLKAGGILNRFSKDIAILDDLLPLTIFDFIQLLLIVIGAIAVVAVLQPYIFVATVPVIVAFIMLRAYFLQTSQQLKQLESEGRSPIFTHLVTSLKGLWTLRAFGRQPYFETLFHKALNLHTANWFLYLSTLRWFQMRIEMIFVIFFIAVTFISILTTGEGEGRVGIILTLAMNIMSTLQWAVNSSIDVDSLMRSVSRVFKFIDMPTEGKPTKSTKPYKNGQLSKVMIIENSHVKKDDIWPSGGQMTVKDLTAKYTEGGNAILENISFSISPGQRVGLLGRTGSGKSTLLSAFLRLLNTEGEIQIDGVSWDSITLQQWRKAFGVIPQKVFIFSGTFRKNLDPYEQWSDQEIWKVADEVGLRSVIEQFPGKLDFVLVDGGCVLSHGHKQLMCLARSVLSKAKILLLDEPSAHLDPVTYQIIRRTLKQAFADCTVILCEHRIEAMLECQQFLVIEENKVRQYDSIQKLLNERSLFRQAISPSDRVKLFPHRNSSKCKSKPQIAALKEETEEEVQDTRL

[1] abbreviates: Table 10, read-out: Ent. B EC50.

Read-outs that look alike come from different tables or passages of the source.

Take `Cc1cccc(C)c1-c1cc2nc(n1)NS(=O)(=O)c1cccc(c1)C(=O)N([C@H]1C[C@]3(C[C@@H](N)C3)C1)[C@H](CC1(C(F)(F)F)CC1)CO2` (stereo partly drawn) [Compound 80, (R)-6-((2S,4s,6S)-6-Aminospiro[3.3]heptan-2-yl)-1^6-(2,6-dimethylphenyl)-7-((1-(trifluoromethyl)cyclopropyl)methyl)-9-oxa-3-thia-2,6-diaza-1(2,4)-pyrimidina-4(1,3)-benzenacyclononaphan-5-one 3,3-dioxide]: where the note is “Table 9”, the “Ent. B Max Activity (%)” value was “+++ (+++ is >60%)”. The half-maximal effective concentration (EC50) (Table 9, read-out: Ent. B EC50) was < 1000 nM.
Regarding `COCCN(C)[C@H]1C[C@@]2(C1)C[C@H](N1C(=O)c3cccc(c3)S(=O)(=O)Nc3nc(cc(-c4c(C)cccc4C)n3)OC[C@H]1CC1(C(F)(F)F)CC1)C2` (stereo partly drawn) [Compound 83, (R)-16-(2,6-Dimethylphenyl)-6-((2R,4r,6R)-6-((2-methoxyethyl)(methyl)amino)spiro[3.3]heptan-2-yl)-7-((1-(trifluoromethyl)cyclopropyl)methyl)-9-oxa-3-thia-2,6-diaza-1(2,4)-pyrimidina-4(1,3)-benzenacyclononaphan-5-one 3,3-dioxide], under “Table 9”, the “Ent. B Max Activity (%)” value was “+++ (+++ is >60%)”. Besides, the EC50 (Table 9, read-out: Ent. B EC50) was < 1000 nM.
In the case of `COC(=O)N1CC2(CC(N3C(=O)c4cccc(c4)S(=O)(=O)Nc4nc(cc(-c5c(C)cccc5C)n4)OC[C@H]3CC3(C(F)(F)F)CC3)C2)C1` [Compound 453], for the setting “Table 9”, the “Ent. B Max Activity (%)” value was “+++ (+++ is >60%)”. Further, under “Table 9, read-out: Ent. B EC50”, the EC50 was < 1000 nM.
The corresponding values for `CC(=O)NC1CC(N2C(=O)c3cccc(c3)S(=O)(=O)Nc3nc(cc(-c4c(C)cccc4C)n3)OC[C@H]2CC(C)(C)C)C1` (single isomer, unassigned) [Compound 448] are “+++ (+++ is >60%)” and < 1000 nM.
For the molecule `Cc1cccc(C)c1-c1cc2nc(n1)NS(=O)(=O)c1cccc(c1)C(=O)N(C1CC3(C1)CC(C(C)(C)O)C3)[C@H](CCC(C)(C)C)CO2` (single isomer, unassigned) [Compound 8], for the setting “Table 10”, the “Ent. B Max Activity (%)” value is “+++ (+++ is >60%)”. The concentration giving a half-maximal response (EC50) under setting [1] was < 1000 nM.
For the molecule `COCC(C)N1CCC2(CC1)CC(N1C(=O)c3cccc(c3)S(=O)(=O)Nc3nc(cc(-c4c(C)cccc4C)n3)OC[C@H]1CC(C)C)C2` (some centres unmarked) [Compound 257], the “Ent. B Max Activity (%)” value (Table 9) is “+++ (+++ is >60%)”. Further, where the note is “Table 9, read-out: Ent. B EC50”, the 50% effective concentration (EC50) was < 1000 nM.
The corresponding values for `Cc1cccc(C)c1-c1cc2nc(n1)NS(=O)(=O)c1cccc(c1)C(=O)N(C1CC(NCCC(C)C)C1)[C@H](CC(C)C)CO2` (some centres unmarked) [Compound 377] are “+++ (+++ is >60%)” and < 1000 nM.
Turning to `COC1CC(N2C(=O)c3cccc(c3)S(=O)(=O)Nc3nc(cc(-c4c(C)cccc4C)n3)OC[C@H]2CC2(C(F)(F)F)CC2)C1` (stereo in doubt) [Compound 465], the “Ent. B Max Activity (%)” value is “+++ (+++ is >60%)”. Besides, the 50% effective concentration (EC50) (read-out: Ent. B EC50) is < 1000 nM.
`Cc1cccc(C)c1-c1cc2nc(n1)NS(=O)(=O)c1cccc(c1)C(=O)N([C@H]1C[C@@H](OC(C)C)C1)[C@H](CC(C)C)CO2` (single isomer, unassigned) [Compound 46]: the “Ent. B Max Activity (%)” value (Table 9) is “+++ (+++ is >60%)”. In addition, the EC50 (Table 9, read-out: Ent. B EC50) was < 1000 nM.
The matching figures for `COCCN1CCC2(CC1)CC(N1C(=O)c3cccc(c3)S(=O)(=O)Nc3nc(cc(-c4c(C)cccc4C)n3)OC[C@H]1CC(C)(C)C(F)(F)F)C2` [Compound 190, (11R)-6-(2,6-dimethylphenyl)-12-[7-(2-methoxyethyl)-7-azaspiro[3.5]nonan-2-yl]-11-(3,3,3-trifluoro-2,2-dimethylpropyl)-9-oxa-2λ^6-thia-3,5,12,19-tetraazatricyclo[12.3.1.14,8]nonadeca-1(17),4(19),5,7,14(18),15-hexaene-2,2,13-trione]: “+++ (+++ is >60%)” and < 1000 nM.
With `CCOC(=O)NC1CC2(C1)CC(N1C(=O)c3cccc(c3)S(=O)(=O)Nc3nc(cc(-c4c(C)cccc4C)n3)OC[C@H]1CC(C)(C)C)C2` (some centres unmarked) [Compound 357], the “Ent. B Max Activity (%)” value (Table 10) is “+++ (+++ is >60%)”. The EC50 under setting [1] was < 1000 nM.
Regarding `[H][C@]1(N2C(=O)c3cccc(c3)S(=O)(=O)Nc3nc(cc(-c4c(C)cccc4C)n3)OC[C@H]2CC(C)(C)C)C[C@@]2(C[C@H](C(=O)N(C)C)C2)C1` (single isomer, unassigned) [Compound 115], the “Ent. B Max Activity (%)” value (Table 10) is reported as “+++ (+++ is >60%)”. Also, the EC50 under setting [1] was < 1000 nM.
The corresponding values for `Cc1cccc(C)c1-c1cc2nc(n1)NS(=O)(=O)c1cccc(n1)C(=O)N(C1CC3(C1)CC(C(C)(C)O)C3)[C@H](CC(C)(C)C)CO2` (single isomer, unassigned) [Compound 161] are “+++ (+++ is >60%)” and < 1000 nM.
In the case of `Cc1cccc(C)c1-c1cc2nc(n1)NS(=O)(=O)c1cccc(c1)C(=O)N([C@H]1C[C@@H](OC(C)C)C1)[C@H](CC1(C(F)(F)F)CC1)CO2` (single isomer, unassigned) [Compound 130], the “Ent. B Max Activity (%)” value (Table 9) is listed as “+++ (+++ is >60%)”. The concentration for a half-maximal effect (EC50) (Table 9, read-out: Ent. B EC50) is < 1000 nM.
Consider `Cc1cccc(C)c1-c1cc2nc(n1)NS(=O)(=O)c1cccc(c1)C(=O)N(C1CC3(CCN(CCOC(C)C)CC3)C1)[C@H](CC(C)(C)C)CO2` [Compound 215], for which the “Ent. B Max Activity (%)” value is recorded as “+++ (+++ is >60%)”. For the same molecule, the concentration giving a half-maximal response (EC50) (read-out: Ent. B EC50) is < 1000 nM.
Take `Cc1cccc(C)c1-c1cc2nc(n1)NS(=O)(=O)c1cccc(c1)C(=O)N(C1CC3(C1)CC(C(C)(C)O)C3)[C@H](CC(C)(C)C)CO2` (single isomer, unassigned) [Compound 116]: the “Ent. B Max Activity (%)” value (Table 10) is given as “+++ (+++ is >60%)”. Further, the concentration for a half-maximal effect (EC50) under setting [1] is < 1000 nM.
With `Cc1cccc(C)c1-c1cc2nc(n1)NS(=O)(=O)c1cccc(c1)C(=O)N([C@H]1C[C@@H](NC(=O)OC(C)(C)C)C1)[C@H](CC1(C(F)(F)F)CC1)CO2` (single isomer, unassigned) [Compound 54], under “Table 9”, the “Ent. B Max Activity (%)” value is “+++ (+++ is >60%)”. The concentration giving a half-maximal response (EC50) (Table 9, read-out: Ent. B EC50) is < 1000 nM.
On to `Cc1cccc(C)c1-c1cc2nc(n1)NS(=O)(=O)c1cccc(c1)C(=O)N(C1CC(NC(=O)OC(C)C)C1)[C@H](CC(C)(C)C)CO2` (stereo in doubt) [Compound 451], for which the “Ent. B Max Activity (%)” value (Table 9) is “+++ (+++ is >60%)”. Moreover, the EC50 (Table 9, read-out: Ent. B EC50) is < 1000 nM.
Consider `Cc1cccc(C)c1-c1cc2nc(n1)NS(=O)(=O)c1cccc(c1)C(=O)N(C1CC(N)C1)[C@H](CC(C)(C)C)CO2` (single isomer, unassigned) [Compound 166], for which the “Ent. B Max Activity (%)” value (Table 10) was “++ (++ is 30-60%)”. Further, under setting [1], the 50% effective concentration (EC50) is < 1000 nM.
The corresponding values for `Cc1cccc(C)c1-c1cc2nc(n1)NS(=O)(=O)c1cccc(c1)C(=O)N([C@H]1C[C@@H](CC(C)(C)O)C1)[C@H](CC(C)(C)C)CO2` (single isomer, unassigned) [Compound 152] are “+++ (+++ is >60%)” and < 1000 nM.
As for `CO[C@H]1C[C@@H](N2C(=O)c3cccc(c3)S(=O)(=O)Nc3nc(cc(-c4c(C)cccc4C)n3)OC[C@H]2CC(C)(C)C)C1` (single isomer, unassigned) [Compound 150], the “Ent. B Max Activity (%)” value was “+++ (+++ is >60%)”. Further, the EC50 (read-out: Ent. B EC50) is < 1000 nM.
The corresponding values for `Cc1cccc(C)c1-c1cc2nc(n1)NS(=O)(=O)c1cccc(c1)C(=O)N(C1CC3(CCN(C(=O)OC(C)C)CC3)C1)C[C@@H](C)O2` [Compound 181, Isopropyl 2-[(10R)-6-(2,6-dimethylphenyl)-10-methyl-2,2,13-trioxo-9-oxa-2λ^6-thia-3,5,12,19-tetrazatricyclo[12.3.1.14,8]nonadeca-1(18),4(19),5,7,14,16-hexaen-12-yl]-7-azaspiro[3.5]nonane-7-carboxylate] are “+++ (+++ is >60%)” and < 1000 nM.
As for `Cc1cccc(C)c1-c1cc2nc(n1)NS(=O)(=O)c1cccc(c1)C(=O)N(C1CC3(CC3)C1)[C@H](CCC(C)(C)O)CO2` [Compound 52, (11R)-6-(2,6-Dimethylphenyl)-11-(3-hydroxy-3-methyl-butyl)-2,2-dioxo-12-spiro[2.3]hexan-5-yl-9-oxa-2λ^6-thia-3,5,12,19-tetrazatricyclo[12.3.1.14,8]nonadeca-1(18),4(19),5,7,14,16-hexaen-13-one], for the setting “Table 10”, the “Ent. B Max Activity (%)” value was “++ (++ is 30-60%)”. Besides, the concentration giving a half-maximal response (EC50) under setting [1] is < 1000 nM.
On to `Cc1cccc(C)c1-c1cc2nc(n1)NS(=O)(=O)c1cccc(c1)C(=O)N([C@H]1C[C@@]3(C[C@@H](N)C3)C1)[C@H](CC1(C(F)(F)F)CC1)CO2` (stereo partly drawn) [Compound 81, (R)-6-((2R,4r,6R)-6-Aminospiro[3.3]heptan-2-yl)-1^6-(2,6-dimethylphenyl)-7-((1-(trifluoromethyl)cyclopropyl)methyl)-9-oxa-3-thia-2,6-diaza-1(2,4)-pyrimidina-4(1,3)-benzenacyclononaphan-5-one 3,3-dioxide], for which the “Ent. B Max Activity (%)” value (Table 9) is “+++ (+++ is >60%)”. Further, the concentration giving a half-maximal response (EC50) (Table 9, read-out: Ent. B EC50) is < 1000 nM.
As to `CC(C)(C)C[C@@H]1COc2cc([C@H]3CCCCC3(C)C)nc(n2)NS(=O)(=O)c2cccc(c2)C(=O)N1C1CC2(CC2)C1` [Compound 397], the “Ent. B Max Activity (%)” value is “++ (++ is 30-60%)”. Also, the EC50 (read-out: Ent. B EC50) is < 1000 nM.
For `CNC(=O)C1CC2(C1)CC(N1C(=O)c3cccc(c3)S(=O)(=O)Nc3nc(cc(-c4c(C)cccc4C)n3)OC[C@H]1CC(C)(C)C)C2` (some centres unmarked) [Compound 235], the “Ent. B Max Activity (%)” value (Table 10) is “+++ (+++ is >60%)”. Also, the half-maximal effective concentration (EC50) under setting [1] is < 1000 nM.
As for `COC(=O)N[C@H]1C[C@@H](N2C(=O)c3cccc(c3)S(=O)(=O)Nc3nc(cc(-c4c(C)cccc4C)n3)OC[C@H]2CC(C)(C)C)C1` [Compound 472], under “Table 9”, the “Ent. B Max Activity (%)” value is given as “+++ (+++ is >60%)”. The EC50 (Table 9, read-out: Ent. B EC50) is < 1000 nM.
Take `Cc1cccc(C)c1-c1cc2nc(n1)NS(=O)(=O)c1cccc(n1)C(=O)N([C@H]1C[C@@H](C(C)(C)O)C1)[C@H](CC(C)(C)C)CO2` (stereo in doubt) [Compound 411]: the “Ent. B Max Activity (%)” value (Table 10) is reported as “+++ (+++ is >60%)”. For the same molecule, the EC50 under setting [1] was < 1000 nM.
